From publication PMC7445743 (Journal of Medicinal Chemistry, 2020)
Structures can show the parent of a compound that is named as a salt.

Columns and labels:
CaMK4 = molecular target: T1, CaMK4 (Homo sapiens, UniProt Q16566); conditions: supplement CSV
T1 sequence (Q16566 1-473): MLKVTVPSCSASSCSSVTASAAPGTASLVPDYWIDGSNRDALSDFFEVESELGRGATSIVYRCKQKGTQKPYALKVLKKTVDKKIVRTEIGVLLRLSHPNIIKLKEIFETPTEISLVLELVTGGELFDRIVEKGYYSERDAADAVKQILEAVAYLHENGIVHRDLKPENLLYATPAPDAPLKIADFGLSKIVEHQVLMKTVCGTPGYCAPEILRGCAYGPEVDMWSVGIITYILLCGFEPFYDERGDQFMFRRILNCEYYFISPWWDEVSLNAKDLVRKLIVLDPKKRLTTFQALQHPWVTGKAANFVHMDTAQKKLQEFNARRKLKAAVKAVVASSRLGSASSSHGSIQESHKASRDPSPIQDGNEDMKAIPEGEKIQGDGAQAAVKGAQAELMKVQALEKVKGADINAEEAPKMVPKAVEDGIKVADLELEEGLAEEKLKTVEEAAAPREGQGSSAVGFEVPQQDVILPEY

ABL = ABL (Homo sapiens, UniProt P00519); conditions: supplement CSV
SYK [1] = molecular target: T2, SYK (Homo sapiens, UniProt P43405); conditions: supplement CSV
GSK3β = GSK3β (Homo sapiens, UniProt P49841); conditions: supplement CSV
CAMK2A = CAMK2A (Homo sapiens, UniProt Q9UQM7); conditions: supplement CSV
DCLK1 = molecular target: T3, DCLK1 (Homo sapiens, UniProt O15075); conditions: supplement CSV
T3 sequence (O15075 1-740): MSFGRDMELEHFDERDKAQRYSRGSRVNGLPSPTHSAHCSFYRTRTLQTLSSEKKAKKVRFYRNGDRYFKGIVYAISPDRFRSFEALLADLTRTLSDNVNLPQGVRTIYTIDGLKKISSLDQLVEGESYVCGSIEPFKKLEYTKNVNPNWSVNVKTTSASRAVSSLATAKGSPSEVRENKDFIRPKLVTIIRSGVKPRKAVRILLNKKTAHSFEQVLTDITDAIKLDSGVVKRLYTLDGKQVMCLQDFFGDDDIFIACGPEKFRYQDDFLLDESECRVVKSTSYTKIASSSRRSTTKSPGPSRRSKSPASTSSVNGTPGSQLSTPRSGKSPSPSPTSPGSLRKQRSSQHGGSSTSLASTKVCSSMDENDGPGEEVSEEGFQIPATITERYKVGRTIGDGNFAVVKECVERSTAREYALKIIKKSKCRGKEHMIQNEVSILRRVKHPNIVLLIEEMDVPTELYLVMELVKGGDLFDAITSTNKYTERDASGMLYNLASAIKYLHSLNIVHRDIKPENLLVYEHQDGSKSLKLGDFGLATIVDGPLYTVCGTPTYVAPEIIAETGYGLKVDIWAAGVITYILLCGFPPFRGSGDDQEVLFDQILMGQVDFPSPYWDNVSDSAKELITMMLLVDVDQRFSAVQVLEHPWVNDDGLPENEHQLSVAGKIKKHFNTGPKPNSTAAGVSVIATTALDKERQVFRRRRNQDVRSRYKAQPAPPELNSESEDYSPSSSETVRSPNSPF

DAPK3 = DAPK3 (Homo sapiens, UniProt O43293); conditions: supplement CSV
DAPK1 = DAPK1 (Homo sapiens, UniProt P53355); conditions: supplement CSV
PAK4 = PAK4 (Homo sapiens, UniProt O96013); conditions: supplement CSV
CAMK1G = CAMK1G (Homo sapiens, UniProt Q96NX5); conditions: supplement CSV
CK2a = CK2a (Homo sapiens, UniProt P68400); conditions: supplement CSV
PIM1 = PIM1 (Homo sapiens, UniProt P11309); conditions: supplement CSV
SYK [2] = molecular target: T2, SYK; test: biochemical; conditions: read-out: Tm shift SYK
[3] = system: kinase panel (468 Assays Tested); test: Pan-kinome selectivity, competitive binding assay (KINOMEscan); conditions: for S-Score(35): 1 μM
PKNB(M.tuberculosis) = molecular target: T4, PKNB(M.tuberculosis) (Mycobacterium tuberculosis, UniProt P9WI81); test: KINOMEscan; assay type: binding
T4 construct: purchased DiscoverX (Eurofins) KINOMEscan scanMAX; first lines in-house DSF / ADP-Glo

[4] = system: diet induced obesity mouse model; test: OGTT in DIO mice, chronic (14 day) dosing study; assay type: in vivo, male C57Bl/6J mice; conditions: twice daily for 14 days (25 mg/kg)
Experimental: Upon completion of the OGTT, all animals were singly housed with food provided as above for 2 weeks prior to the onset of the baseline phase of the chronic study. Upon single housing after the OGTT, mice were placed on a reverse-phase light–dark cycle (lights off 09:30–17:30). Following this period, the animals underwent a 5-day baseline phase where they were dosed twice daily with vehicle at approximately 08:45 and 16:45 each day. Toward the end of the baseline phase mice were reallocated to dosing groups (8 animals per group) such that groups within the study were balanced as closely as possible for body weight, food and water intake, and previous treatment. From day 1 onward, mice were dosed orally twice daily with 25 mg/kg 18 formulated in a vehicle of DMSO (10% final volume) and 20% (2-hydroxypropyl)-β-cyclodextrin (90% final volume) on days 1–6 and 1% methyl cellulose at 5 mL/kg on subsequent days or twice daily orally with vehicle alone or subcutaneously with 0.1 mg/kg liraglutide (Bachem) formulated in pH 7.4 phosphate buffer solution. Oral dosing began at approximately 08:45 and 16:45, with subcutaneous dosing at 08:45 only. […] Plasma glucose and insulin data from the OGTTs were analyzed by robust regression with treatment as a factor and bleeding order and day 1 body weight as covariates. […]

[5] = system: diet induced obesity mouse model; test: OGTT in DIO mice, acute dosing study; assay type: in vivo, male C57Bl/6J mice; conditions: single oral dose of 25 or 50 mg/kg 4 h prior to OGTT, vs vehicle
Experimental: Animals were allocated to dosing groups (6 mice per group) such that groups were balanced as closely as possible for mean body weight. The day prior to the OGTT, all animals were deprived of food (but not water) beginning approximately 16:45. The following morning, the mice were dosed with vehicle or either 10 mg/kg, 25 mg/kg, or 50 mg/kg 18 formulated in a vehicle of DMSO (10% final volume) and 20% (2-hydroxypropyl)-β-cyclodextrin (90% final volume) by the oral route (beginning at 08:45). Four hours after dosing, a blood sample was taken (B1), and 3 min later glucose was administered (2 g/kg orally). Further blood samples were taken 10, 30, 60, and 90 min after glucose administration. Between blood sampling, animals were returned to the home cage with free access to water (but not food). Blood samples (approximately 30 μL) were collected into lithium heparinized tubes (Sarstedt Microvette CB300LH), and plasma was separated by centrifugation to produce a single aliquot of plasma, which was frozen (approximately −80 °C) and subsequently assayed for glucose (in duplicate; Thermoelectron Infinity glucose reagent TR15498) and insulin (single replicate; Alpco mouse ultrasensitive insulin kit 80, INSMSU-E10).

[6] = Microsome metabolism (MICs)
[7] = Microsome metabolism (MICs); remark: listed apart in the source
[8] = Microsome metabolism (MICs); remark: listed apart in the source
in vitro [9] = conditions: mouse, plasma
in vitro [10] = conditions: rat, plasma
NGS mice = test: Tolerability study in NGS mice; assay type: in vivo; conditions: 40 mg/kg once daily for 21 days, 50:45:5 PEG400/water/ethanol
in vitro [11] = conditions: human, plasma
[12] = Hepatocyte metabolism (Heps); assay type: in vitro ADME
in vivo = conditions: male, Crl:CD Sprague-Dawley, rat, iv, 2 mg/kg

Sequence of PAK4 (O96013 whole entry): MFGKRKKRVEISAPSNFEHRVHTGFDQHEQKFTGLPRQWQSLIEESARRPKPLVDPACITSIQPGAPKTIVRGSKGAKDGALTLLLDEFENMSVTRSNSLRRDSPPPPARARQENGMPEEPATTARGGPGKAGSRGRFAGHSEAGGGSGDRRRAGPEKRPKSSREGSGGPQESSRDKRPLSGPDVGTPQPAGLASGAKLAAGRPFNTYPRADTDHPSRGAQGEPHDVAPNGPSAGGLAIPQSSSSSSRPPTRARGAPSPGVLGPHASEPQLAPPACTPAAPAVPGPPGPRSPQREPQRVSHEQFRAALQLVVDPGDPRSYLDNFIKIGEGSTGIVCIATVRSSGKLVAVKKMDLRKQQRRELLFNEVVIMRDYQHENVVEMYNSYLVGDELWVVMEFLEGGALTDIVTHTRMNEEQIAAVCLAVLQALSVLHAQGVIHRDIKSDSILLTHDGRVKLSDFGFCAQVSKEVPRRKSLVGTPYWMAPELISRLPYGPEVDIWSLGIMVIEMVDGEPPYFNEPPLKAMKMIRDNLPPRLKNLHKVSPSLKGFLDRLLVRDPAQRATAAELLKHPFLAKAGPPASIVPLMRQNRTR
T4 sequence (P9WI81 whole entry): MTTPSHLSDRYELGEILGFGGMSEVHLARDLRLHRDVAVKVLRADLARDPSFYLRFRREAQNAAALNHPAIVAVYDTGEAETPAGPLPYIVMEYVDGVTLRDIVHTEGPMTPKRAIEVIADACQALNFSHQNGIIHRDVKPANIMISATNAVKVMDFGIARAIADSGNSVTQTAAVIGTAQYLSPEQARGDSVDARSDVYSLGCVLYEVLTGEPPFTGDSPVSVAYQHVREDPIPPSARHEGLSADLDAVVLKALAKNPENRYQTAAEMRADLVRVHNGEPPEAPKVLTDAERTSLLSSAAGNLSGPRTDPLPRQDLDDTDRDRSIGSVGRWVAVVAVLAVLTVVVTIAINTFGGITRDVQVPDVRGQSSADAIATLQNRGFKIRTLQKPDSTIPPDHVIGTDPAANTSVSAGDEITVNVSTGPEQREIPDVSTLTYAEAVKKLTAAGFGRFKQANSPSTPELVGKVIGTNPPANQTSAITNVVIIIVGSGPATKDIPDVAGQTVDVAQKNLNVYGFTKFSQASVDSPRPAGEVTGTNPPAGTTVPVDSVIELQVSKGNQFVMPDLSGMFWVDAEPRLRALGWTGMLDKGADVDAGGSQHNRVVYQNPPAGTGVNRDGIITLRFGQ
Sequence of CAMK1G (Q96NX5 whole entry): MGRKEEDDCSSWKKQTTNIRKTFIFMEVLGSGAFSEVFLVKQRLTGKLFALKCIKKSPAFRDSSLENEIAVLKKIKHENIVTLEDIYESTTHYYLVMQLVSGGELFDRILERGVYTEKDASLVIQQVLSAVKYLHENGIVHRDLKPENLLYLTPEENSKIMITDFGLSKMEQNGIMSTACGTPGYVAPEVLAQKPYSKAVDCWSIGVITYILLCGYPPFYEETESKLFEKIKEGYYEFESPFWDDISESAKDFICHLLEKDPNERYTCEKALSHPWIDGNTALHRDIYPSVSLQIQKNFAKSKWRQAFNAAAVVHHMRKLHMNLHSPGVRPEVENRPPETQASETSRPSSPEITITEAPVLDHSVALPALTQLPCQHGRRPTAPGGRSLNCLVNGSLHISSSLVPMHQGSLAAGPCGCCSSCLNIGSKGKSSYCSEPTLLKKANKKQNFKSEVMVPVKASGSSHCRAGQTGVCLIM
Sequence of CAMK2A (Q9UQM7 whole entry): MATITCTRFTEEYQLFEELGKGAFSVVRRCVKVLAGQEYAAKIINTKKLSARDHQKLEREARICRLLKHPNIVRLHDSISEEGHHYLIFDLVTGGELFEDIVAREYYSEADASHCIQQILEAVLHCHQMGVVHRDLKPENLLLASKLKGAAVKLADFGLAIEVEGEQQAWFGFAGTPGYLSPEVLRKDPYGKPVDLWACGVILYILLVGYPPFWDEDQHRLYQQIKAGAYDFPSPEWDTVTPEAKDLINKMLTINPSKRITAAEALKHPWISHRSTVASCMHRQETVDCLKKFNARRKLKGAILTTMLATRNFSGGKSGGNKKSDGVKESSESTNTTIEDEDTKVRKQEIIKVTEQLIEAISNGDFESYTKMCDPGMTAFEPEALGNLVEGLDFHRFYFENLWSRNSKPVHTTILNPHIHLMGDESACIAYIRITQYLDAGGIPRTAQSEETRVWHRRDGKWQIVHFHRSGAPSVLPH
Sequence of ABL (P00519 whole entry, species assumed): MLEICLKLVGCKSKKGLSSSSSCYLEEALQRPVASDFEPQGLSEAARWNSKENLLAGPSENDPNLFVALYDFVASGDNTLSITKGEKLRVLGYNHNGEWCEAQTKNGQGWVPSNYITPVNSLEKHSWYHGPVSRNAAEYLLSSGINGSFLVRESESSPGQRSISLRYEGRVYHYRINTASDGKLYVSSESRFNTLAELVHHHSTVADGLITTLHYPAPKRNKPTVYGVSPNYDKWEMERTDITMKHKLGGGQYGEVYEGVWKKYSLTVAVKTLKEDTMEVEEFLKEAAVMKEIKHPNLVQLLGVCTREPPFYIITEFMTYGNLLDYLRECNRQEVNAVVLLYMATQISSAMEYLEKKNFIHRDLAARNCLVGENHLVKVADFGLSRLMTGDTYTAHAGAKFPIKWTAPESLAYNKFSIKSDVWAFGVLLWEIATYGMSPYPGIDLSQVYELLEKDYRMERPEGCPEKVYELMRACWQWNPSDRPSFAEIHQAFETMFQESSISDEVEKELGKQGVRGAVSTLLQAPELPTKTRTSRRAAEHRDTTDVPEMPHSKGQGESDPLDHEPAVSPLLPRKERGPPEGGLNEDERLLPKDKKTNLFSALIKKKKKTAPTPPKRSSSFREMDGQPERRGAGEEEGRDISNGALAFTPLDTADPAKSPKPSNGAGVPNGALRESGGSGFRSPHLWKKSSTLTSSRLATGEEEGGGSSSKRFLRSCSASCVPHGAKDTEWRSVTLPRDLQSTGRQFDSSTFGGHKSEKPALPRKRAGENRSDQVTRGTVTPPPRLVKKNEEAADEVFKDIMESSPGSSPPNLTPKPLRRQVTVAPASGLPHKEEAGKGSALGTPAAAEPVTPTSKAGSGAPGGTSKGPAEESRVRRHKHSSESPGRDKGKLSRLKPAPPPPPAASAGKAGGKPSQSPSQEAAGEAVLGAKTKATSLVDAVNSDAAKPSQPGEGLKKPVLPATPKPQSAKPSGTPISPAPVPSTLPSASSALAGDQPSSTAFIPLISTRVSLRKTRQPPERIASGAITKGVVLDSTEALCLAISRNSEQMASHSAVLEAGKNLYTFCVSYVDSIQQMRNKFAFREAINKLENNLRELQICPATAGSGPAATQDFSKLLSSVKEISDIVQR
Sequence of CK2a (P68400 whole entry): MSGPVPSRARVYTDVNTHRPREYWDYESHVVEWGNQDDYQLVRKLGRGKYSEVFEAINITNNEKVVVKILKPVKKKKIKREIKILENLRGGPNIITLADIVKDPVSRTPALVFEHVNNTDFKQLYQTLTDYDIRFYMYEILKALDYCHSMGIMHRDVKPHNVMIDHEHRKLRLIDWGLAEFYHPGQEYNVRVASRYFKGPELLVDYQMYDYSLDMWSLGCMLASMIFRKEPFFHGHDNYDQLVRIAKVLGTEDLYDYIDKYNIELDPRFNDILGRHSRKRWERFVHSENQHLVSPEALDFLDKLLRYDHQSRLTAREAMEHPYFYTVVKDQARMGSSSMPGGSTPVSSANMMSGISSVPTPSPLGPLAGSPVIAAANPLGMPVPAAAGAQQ
Sequence of GSK3β (P49841 whole entry, species assumed): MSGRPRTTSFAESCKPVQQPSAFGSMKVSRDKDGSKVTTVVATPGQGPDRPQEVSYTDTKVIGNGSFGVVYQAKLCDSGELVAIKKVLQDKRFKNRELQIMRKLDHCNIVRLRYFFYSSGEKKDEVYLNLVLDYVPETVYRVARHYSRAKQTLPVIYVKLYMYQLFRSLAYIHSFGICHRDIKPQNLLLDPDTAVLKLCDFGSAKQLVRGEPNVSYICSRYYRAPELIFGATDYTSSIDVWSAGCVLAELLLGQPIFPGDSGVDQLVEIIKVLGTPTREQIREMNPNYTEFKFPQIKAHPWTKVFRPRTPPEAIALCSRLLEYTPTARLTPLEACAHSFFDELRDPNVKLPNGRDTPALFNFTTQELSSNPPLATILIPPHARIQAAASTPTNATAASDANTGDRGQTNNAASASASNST
Sequence of PIM1 (P11309 whole entry): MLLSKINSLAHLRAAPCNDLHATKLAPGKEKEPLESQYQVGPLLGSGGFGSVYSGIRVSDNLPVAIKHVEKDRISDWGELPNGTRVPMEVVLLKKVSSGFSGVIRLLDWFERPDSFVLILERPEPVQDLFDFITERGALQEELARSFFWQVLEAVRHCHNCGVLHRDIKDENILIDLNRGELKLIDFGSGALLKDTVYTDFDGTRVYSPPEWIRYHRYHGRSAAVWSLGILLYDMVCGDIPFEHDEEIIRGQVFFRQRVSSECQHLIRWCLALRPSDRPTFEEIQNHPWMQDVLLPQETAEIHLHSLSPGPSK
Sequence of DAPK3 (O43293 whole entry): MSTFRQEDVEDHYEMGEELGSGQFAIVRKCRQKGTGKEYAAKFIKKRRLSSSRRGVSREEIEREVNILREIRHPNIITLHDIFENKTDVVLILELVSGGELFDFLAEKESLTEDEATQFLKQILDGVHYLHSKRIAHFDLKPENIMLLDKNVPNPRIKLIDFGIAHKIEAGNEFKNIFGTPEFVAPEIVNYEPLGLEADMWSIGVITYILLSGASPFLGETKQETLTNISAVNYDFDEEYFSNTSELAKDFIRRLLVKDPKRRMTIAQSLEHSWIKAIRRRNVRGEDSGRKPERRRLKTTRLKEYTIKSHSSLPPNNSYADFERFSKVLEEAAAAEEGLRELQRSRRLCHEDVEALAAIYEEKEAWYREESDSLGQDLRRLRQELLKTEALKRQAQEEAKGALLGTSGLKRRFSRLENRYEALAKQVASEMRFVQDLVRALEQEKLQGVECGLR

## NCCNc1ncc(C(N)=O)c(Nc2cccc(C(F)(F)F)c2)n1 [Compound 1, 2-((2-Aminoethyl)amino)-4-((3-(trifluoromethyl)phenyl)amino)pyrimidine-5-carboxamide hydrochloride, reference compound]
CaMK4
  CAMK4 Tm: 1.34 0C
ABL
  ABL1 Tm: 1.33 0C
SYK [1]
  SYK Tm: 7.51 0C
GSK3β
  GSK3B Tm: 3.4 0C
CAMK2A
  CAMK2A Tm: 0.21 0C
DCLK1
  DCAMKL1 Tm: 0.11 0C
DAPK3
  DAPK3 Tm: 4.05 0C
DAPK1
  DAPK1 Tm: 2.33 0C
PAK4
  PAK4 Tm: 4.62 0C
CAMK1G
  CAMK1G Tm: 4.11 0C
CK2a
  CK2alpha Tm: 0.87 0C
PIM1
  PIM1 Tm: 1 0C

## CN(CCN)c1ncc(C(N)=O)c(Nc2cccc(C(F)(F)F)c2)n1 [Compound 3, 2-((2-Aminoethyl)(methyl)amino)-4-((3-(trifluoromethyl)phenyl)amino)pyrimidine-5-carboxamide Hydrochloride]
ABL
  ABL1 Tm: 1.75 0C
CAMK2A
  CAMK2A Tm: 0.49 0C
DAPK1
  DAPK1 Tm: 3.2 0C
PAK4
  PAK4 Tm: 2.1 0C
CAMK1G
  CAMK1G Tm: 4.91 0C
CK2a
  CK2alpha Tm: 1.26 0C
PIM1
  PIM1 Tm: 4.42 0C

## NC(=O)c1cnc(N2CCC[C@@H](N)C2)nc1Nc1cccc(C(F)(F)F)c1 [Compound 7, (R)-2-(3-Aminopiperidin-1-yl)-4-((3-(trifluoromethyl)phenyl)amino)pyrimidine-5-carboxamide Hydrochloride]
SYK [2]
  ΔTm at 10 µM: 6.82 °C
SYK [1]
  SYK Tm: 6.82 0C
CAMK2A
  CAMK2A Tm: 1.17 0C
CAMK1G
  CAMK1G Tm: 6.58 0C

## NC(=O)c1cnc(N2CCC[C@H](N)C2)nc1Nc1cccc(C(F)(F)F)c1 [Compound 8, (S)-2-(3-Aminopiperidin-1-yl)-4-((3-(trifluoromethyl)phenyl)amino)pyrimidine-5-carboxamide Hydrochloride]
[3]
  S-Score(35): 0.12
[3]; competitive binding assay at 1 μM
  wild-type kinases inhibited by >90%: 11
CAMK2A
  CAMK2A Tm: 1.08 0C
PAK4
  PAK4 Tm: 4.73 0C
CAMK1G
  CAMK1G Tm: 9.55 0C
PKNB(M.tuberculosis)
  remaining binding at 1 µM: 84%

## CC(C)(C)c1cc(Nc2nc(N3CCC[C@H](N)C3)ncc2C(N)=O)cc(C(C)(C)C)c1 [Compound 14, (S)-2-(3-Aminopiperidin-1-yl)-4-((3,5-di-tert-butylphenyl)amino)pyrimidine-5-carboxamide]
CaMK4
  CAMK4 Tm: 6.39 0C
ABL
  ABL1 Tm: -0.28 0C
GSK3β
  GSK3B Tm: -0.63 0C
[3]
  S-Score(35): 0.01
CAMK2A
  CAMK2A Tm: 0.69 0C
DCLK1
  DCAMKL1 Tm: 1.34 0C
DAPK3
  DAPK3 Tm: 4.82 0C
PAK4
  PAK4 Tm: -0.72 0C
CAMK1G
  CAMK1G Tm: 10.22 0C
PKNB(M.tuberculosis)
  remaining binding at 1 µM: 97%

## CC(C)(C#N)c1cc(Nc2nc(N3CCC[C@H](N)C3)ncc2C(N)=O)cc(C(C)(C)C#N)c1 [Compound 18, (S)-2-(3-Aminopiperidin-1-yl)-4-((3,5-bis(2-cyanopropan-2-yl)phenyl)amino)pyrimidine-5-carboxamide Hydrochloride]
[4]
  baseline glucose and insulin levels, peak glucose following OGTT: reduced baseline glucose and insulin levels, as well as reduced peak glucose levels
  glucose AUCB2: no effect
[5]
  glucose control and insulin sensitivity in OGTT: improved glucose control and increased insulin sensitivity
[3]
  S-Score(35): 0.03
[3]; 468 Assays Tested
  Interactions Mapped: 23
[6]
  human MICs: 13 μL·min^–1·mg^–1
[7]
  mouse MICs: 15 μL·min^–1·mg^–1
[8]
  rat MICs: < 1 μL·min^–1·mg^–1
PKNB(M.tuberculosis)
  remaining binding at 1 µM: 84%

## CC(C)c1cc(Nc2nc(N3CCC[C@H](N)C3)ncc2C(N)=O)cc(C(C)C)n1 [Compound 19, (S)-2-(3-Aminopiperidin-1-yl)-4-((2,6-diisopropylpyridin-4-yl)amino)pyrimidine-5-carboxamide]
In vitro [9]
  fraction unbound: 0.06
[3]
  S-Score(35): 0.03
In vitro [10]
  fraction unbound: 0.08
NGS mice
  tolerability: no observable adverse effects
[6]
  human MICs: 7 μL·min^–1·mg^–1
In vitro [11]
  fraction unbound: 0.11
[12]
  human Heps: 19 μL·min^–1 per 10^6 cells
In vivo
  clearance: 36.5 mL/min/kg
[7]
  mouse MICs: 6 μL·min^–1·mg^–1
PAK4
  PAK4 Tm: 3.31 0C
CAMK1G
  CAMK1G Tm: 16.35 0C
[8]
  rat MICs: 3 μL·min^–1·mg^–1
PKNB(M.tuberculosis)
  remaining binding at 1 µM: 83%
